Laboratory results from US20050061314A1, “Metered dose inhaler” (Vactura Limited, priority 2001, published 2005).

Tests used:
mice = details: cited from earlier work
[1] = mouse brain; cited from earlier work
GABA = details: cited from earlier work
effect of THC = details: cited from earlier work
cataleptic effect of THC = details: mice; cited from earlier work
[2] = Andersen Cascade Impactor aerosol characterisation of pMDI solution formulations; type: physicochemical
Experimental: The FPD, which provides a direct measurement of the aerosol particles considered suitable for deposition and retention in the respiratory tract, is calculated as the mass of the particles deposited from stage 3 to the filter (particles with an aerodynamic diameter less than 4.7 μm) in an Andersen Cascade Impactor.
The aerodynamic particle size distribution of an aerosol formulation is characterised using a Multistage Cascade Impactor according to the procedure described in European Pharmacopoeia 2nd edition, 1995, part V.5.9.1, pages 15-17. Generally an Andersen Cascade Impactor (ACI) is utilised. Deposition of the drug on each ACI plate is determined by high performance liquid chromatography (HPLC). Mean metered dose is calculated from the cumulative deposition in the actuator and ACI stages; mean delivered dose is calculated from the cumulative deposition in the ACI. Mean respirable dose (fine particle dose, i.e. FPD) which provides a direct measurement of the aerosol particles is considered suitable for deposition and retention in the respiratory tract, is obtained from the deposition on Stage 3 (S3) to filter (AF) corresponding to particles with an aerodynamic diameter ≦4.7 μm. Smaller particles, with an aerodynamic diameter ≦1.1 μm correspond to the fraction obtained from the deposition on Stage 6 to filter.
The FPD can also be expressed as a percentage of the ex-valve dose or recovered dose (i.e. Fine Particle Fraction: FPF≦4.7 μm or FPF≦1.1 μm). Shot weights are measured by weighing each canister before and after the actuation.
The experiments of example 2 consisted of discharging Δ^9-THC (THC)/ethanol/glycerol/HFA 134a and Δ^9-THC hemisuccinate (THC-HS)/ethanol/glycerol/HFA 134a formulations through actuator inserts housed in a modified Bespak actuator (630 series) into an Andersen Cascade Impactor operated at 28.3 L min^−1. Two product strengths, 100 μg/dose and 1000 μg/dose, were used in combination with 5% or 10% w/w ethanol, and 0.1% or 0.3% glycerol. Experiments were conducted using 0.14 and 0.16 mm diameter, 0.60 mm long, laser drilled actuator orifices in accordance with the invention in its preferred aspects and a third party supplied actuator with an orifice diameter of 0.22 mm. The quantities of drug deposited on the actuator, the throat and the stages of the impactor were measured. The delivered dose, the mass median aerodynamic diameter (MMAD), the geometric standard deviation (GSD), the fine particle dose ≦4.7 μm (FPD≦4.7) and the fine particle dose ≦1.1 μm (FPD≦1.1) were calculated from the results of these experiments and are set out in tables 3 and 4. The FPDs were also expressed as a % fraction of the ex-valve dose (FPF≦4.7, FPF≦1.1). Shot weight was measured by weighing the pMDI before and after discharge. These latter parameters are also set out in tables 3 and 4 along with other results of these experiments.

asthmatic patients = details: pMDI with CFC propellant and ethanol; cited from earlier work
[3] = 100 μg, 5% Ethanol, 0.1% Glycerol, HFA134a, 50 μl, Actuator 0.14 mm
[4] = 1000 μg, 5% Ethanol, 0.1% Glycerol, HFA134a, 50 μl, Actuator 0.14 mm
[5] = 100 μg/50 μl/134a, 5% Et, 0.1% Gly, 0.14 mm Aluminium insert (4b)
[6] = 100 μg/50 μl/134a, 5% Et, 0.1% Gly, 0.16 mm Al insert (11A)
[7] = 100 μg/50 μl/134a, 5% Et, 0.1% Gly, 0.22 mm Bespak Actuator
[8] = 100 μg/50 μl/134a, 10% Et, 0.3% Gly, 0.14 mm Aluminium insert (4b)

CCCCCc1cc(O)c2c(c1)OC(C)(CCC=C(C)C)C=C2 (stereo not drawn) [CBC, cannabichromene]
effect on LD50 of THC (mice): does lower LD50 of THC

C=C(C)[C@@H]1CCC(C)=C[C@H]1c1c(O)cc(CCCCC)cc1O [CBD, cannabidiol]
effect on THC levels in the brain [1]: increases THC levels

CCCCCc1cc(O)c(C/C=C(\C)CCC=C(C)C)c(O)c1 [CBG, cannabigerol]
GABA inhibitor potency relative to THC (GABA): more potent GABA inhibitor than THC

CCCCCc1cc(O)c2c(c1)OC(C)(C)c1ccc(C)cc1-2 [CBN, cannabinol]
effect on the effect of THC in man (effect of THC): potentates the effect of THC
effect on cataleptic effect of THC (cataleptic effect of THC): antagonises cataleptic effect of THC

CCCCCc1cc(O)c2c(c1)OC(C)(C)[C@@H]1CCC(C)=C[C@@H]21 [THC, Δ^9-tetrahydrocannabinol, reference compound]
Delivered [2, 3]: 108.2 µg
FPD<1.1 μm [2, 3]: 42.01 µg
FPD<3.3 μm [2, 3]: 98.02 µg
FPD<4.7 μm [2, 3]: 101.71 µg
FPF<1.1 μm [2, 3]: 36.63%
FPF<3.3 μm [2, 3]: 85.46%
FPF<4.7 [2, 3]: 88.67%
GSD [2, 3]: 1.8
MMAD [2, 3]: 1.3 μm
Recovered [2, 3]: 114.7 µg
Shot Weight ± SD [2, 3]: 62.4 ± 0.8 mg
Delivered [2, 4]: 1044.5 µg
FPD<1.1 μm [2, 4]: 129.7 µg
FPD<3.3 μm [2, 4]: 735.5 µg
FPD<4.7 μm [2, 4]: 907.14 µg
FPF<1.1 μm [2, 4]: 11.69%
FPF<3.3 μm [2, 4]: 66.32%
FPF<4.7 [2, 4]: 81.79%
GSD [2, 4]: 1.7
MMAD [2, 4]: 2.3 μm
Recovered [2, 4]: 1109.1 µg
Shot Weight ± SD [2, 4]: 63.8 ± 0.4 mg
bronchodilatory effect (asthmatic patients): bronchodilatory effect

CCCCCc1cc(OC(=O)CCC(=O)O)c2c(c1)OC(C)(C)[C@@H]1CCC(C)=C[C@@H]21 [THC-HS, Δ^9-THC hemisuccinate]
Delivered [2, 3]: 97.30 µg
FPD<1.1 μm [2, 3]: 37.56 µg
FPD<3.3 μm [2, 3]: 89.66 µg
FPD<4.7 μm [2, 3]: 91.94 µg
FPF<1.1 μm [2, 3]: 36.86%
FPF<3.3 μm [2, 3]: 87.99%
FPF<4.7 [2, 3]: 90.23%
GSD [2, 3]: 1.7
MMAD [2, 3]: 1.3 μm
Recovered [2, 3]: 101.90 µg
Shot Weight ± SD [2, 3]: 64.7 ± 0.5 mg
Actuator [2, 5]: 4.57 µg
Delivered [2, 5]: 97.30 µg
Dose < 1.1 μm [2, 5]: 37.56 µg
FPD<3.3 μm [2, 5]: 89.66 µg
FPD<4.7 μm [2, 5]: 91.94 µg
FPF<1.1 μm [2, 5]: 36.86%
FPF<3.3 μm [2, 5]: 87.99%
FPF<4.7 [2, 5]: 90.23%
GSD [2, 5]: 1.7
MMAD [2, 5]: 1.3 μm
Recovered [2, 5]: 101.90 µg
Shot Weight ± SD [2, 5]: 64.7 ± 0.5 mg
Throat [2, 5]: 3.51 µg
Actuator [2, 6]: 4.88 µg
Delivered [2, 6]: 93.40 µg
Dose < 1.1 μm [2, 6]: 28.19 µg
FPD<3.3 μm [2, 6]: 80.07 µg
FPD<4.7 μm [2, 6]: 83.56 µg
FPF<1.1 μm [2, 6]: 28.59%
FPF<3.3 μm [2, 6]: 81.25%
FPF<4.7 [2, 6]: 84.79%
GSD [2, 6]: 1.8
MMAD [2, 6]: 1.4 μm
Recovered [2, 6]: 98.55 µg
Shot Weight ± SD [2, 6]: 62.0 ± 0.6 mg
Throat [2, 6]: 7.52 µg
Actuator [2, 7]: 7.71 µg
Delivered [2, 7]: 98.00 µg
Dose < 1.1 μm [2, 7]: 24.30 µg
FPD<3.3 μm [2, 7]: 77.43 µg
FPD<4.7 μm [2, 7]: 82.02 µg
FPF<1.1 μm [2, 7]: 22.99%
FPF<3.3 μm [2, 7]: 73.25%
FPF<4.7 [2, 7]: 77.60%
GSD [2, 7]: 1.7
MMAD [2, 7]: 1.5 μm
Recovered [2, 7]: 105.70 µg
Shot Weight ± SD [2, 7]: 62.6 ± 0.4 mg
Throat [2, 7]: 13.82 µg
Actuator [2, 8]: 4.35 µg
Delivered [2, 8]: 79.50 µg
Dose < 1.1 μm [2, 8]: 14.21 µg
FPD<3.3 μm [2, 8]: 65.50 µg
FPD<4.7 μm [2, 8]: 70.93 µg
FPF<1.1 μm [2, 8]: 16.96%
FPF<3.3 μm [2, 8]: 78.16%
FPF<4.7 [2, 8]: 84.64%
GSD [2, 8]: 1.7
MMAD [2, 8]: 1.7 μm
Recovered [2, 8]: 83.80 µg
Shot Weight ± SD [2, 8]: 60.7 ± 0.6 mg
Throat [2, 8]: 5.93 µg
Delivered [2, 4]: 834.3 µg
FPD<1.1 μm [2, 4]: 138.04 µg
FPD<3.3 μm [2, 4]: 676.16 µg
FPD<4.7 μm [2, 4]: 771.92 µg
FPF<1.1 μm [2, 4]: 15.83%
FPF<3.3 μm [2, 4]: 77.56%
FPF<4.7 [2, 4]: 88.54%
GSD [2, 4]: 1.7
MMAD [2, 4]: 1.9 μm
Recovered [2, 4]: 871.8 µg
Shot Weight ± SD [2, 4]: 64.7 ± 0.6 mg
